Measured values as given in EP3412661A1, “COCRYSTALS OF VORTIOXETINE HYDROBROMIDE AND RESORCINOL” (Enantia, S.L., priority 2017, dated 2018).
Values after ≈ are worked out from the molar mass of the structure shown. Structures can show the parent of a compound that is named as a salt.

How the values were obtained:
[1] = Stability test under accelerated stability conditions (ICH), crystalline phase checked by XRPD; format: physicochemical; conditions: 40 °C / 75±5% RH
Description: The samples were analyzed by XRPD to observe if the crystalline phase was stable (see Table 2).

[2] = Comparative kinetic solubility study in water at room temperature (HPLC vortioxetine peak area, pH and XRPD of filtered solid); conditions: for Analysis 1 XRPD / Analysis 2 XRPD / Analysis 1 pH / Analysis 2 pH: Form β study; for Analysis 1 XRPD / Analysis 2 XRPD: filtered solid; for Analysis 1 pH / Analysis 2 pH: mother liquor
Description: A comparative kinetic solubility study of the cocrystal of vortioxetine·HBr and resorcinol 2:1 Form I and with vortioxetine·HBr Form β was performed in water at room temperature (RT). The relative solubility of vortioxetine was obtained by comparison of the vortioxetine peak area in the HPLC analyses of the mother liquors.
The solubility tests were performed in a minireactor HME-R, provided with a 250 mL vessel, a temperature sensor and mechanical stirring.
1 g of each material was stirred in water (150 ml, […]) at 350 rpm. Aliquots of ca. 5 ml of suspension were filtered in a sintered glass funnel (#4) at different times: 30, 60, 180 min and 24 h. After filtration, the pH of the mother liquor was determined. 1 mL of mother liquor was measured with a pipette and diluted to 10 mL with water in a volumetric flask. A portion of this solution was filtered again through a 0.20 µm nylon filter and directly analyzed by HPLC (2 injections for each sample). The filtered solids were analyzed by XRPD, without a drying step, to determine the crystalline phase corresponding to the measured solubility.
The HPLC conditions were the following:
The kinetic solubility of cocrystal vortioxetine hydrobromide and resorcinol Form I and vortioxetine·HBr Form β at room temperature in water was determined in duplicate.

[3] = cited from earlier work
[4] = according to WO2007/144005A1 / US9562024B2; hydrobromide; cited from earlier work
[5] = cited from earlier work; remark: listed apart in the source
[6] = compared with vortioxetine hydrobromide Form β (example 140 of US9562024B2); cited from earlier work
[7] = water, room temperature, 30 min
[8] = water, room temperature, 60 min
[9] = water, room temperature, 180 min

## Cc1ccc(Sc2ccccc2N2CCNCC2)c(C)c1 [Vortioxetine·HBr Form β, vortioxetine hydrobromide]
[1]; 7 days
  XRPD: stable
[1]; 14 days
  XRPD: stable
[1]; 21 days
  XRPD: stable
[1]; 28 days, hydrobromide
  XRPD: stable
[1]; 28 days, listed as Vortioxetine•HBr Form β, hydrobromide
  XRPD: remained stable
[2]
  maximum of solubility afforded after: three hours
  spring and parachute effect: not seen
[2]; 30 min
  Analysis 1 Average Form β (Vortioxetine area): 564
  Analysis 2 Average Form β (Vortioxetine area): 427
  Average Vortioxetine area: 495
[2]; 60 min
  Analysis 1 Average Form β (Vortioxetine area): 550
  Analysis 2 Average Form β (Vortioxetine area): 537
  Average Vortioxetine area: 544
[2]; 180 min
  Analysis 1 Average Form β (Vortioxetine area): 579
  Analysis 2 Average Form β (Vortioxetine area): 561
  Average Vortioxetine area: 570
[2]; 24 h
  Analysis 1 Average Form β (Vortioxetine area): 572
  Analysis 2 Average Form β (Vortioxetine area): 581
  Average Vortioxetine area: 576
[2]; [7]
  Analysis 1 XRPD: Form β
  Analysis 2 XRPD: Form β
  Analysis 1 pH: 4.9
  Analysis 2 pH: 5.3
[2]; [8]
  Analysis 1 XRPD: Form β
  Analysis 2 XRPD: Form β
  Analysis 1 pH: 4.8
  Analysis 2 pH: 5.1
[2]; [9]
  Analysis 1 XRPD: Form β
  Analysis 2 XRPD: Form β
  Analysis 1 pH: 4.8
  Analysis 2 pH: 5.1
[2]; water, room temperature, 24 h
  Analysis 1 XRPD: Form β
  Analysis 2 XRPD: Form β
  Analysis 1 pH: 5.6
  Analysis 2 pH: 5.5
[2]; water, room temperature, 24 hours, XRPD
  crystalline form after 24 hours in water dispersion: unchanged
[2]; water, room temperature, remaining constant over the study
  pH: 4-5

## Cc1ccc(Sc2ccccc2N2CCNCC2)c(C)c1 [Form γ of vortioxetine hydrobromide, vortioxetine hydrobromide]
[3]; under low-humidity conditions
  hygroscopicity: 2.0%
[4]
  stability: very unstable

## Cc1ccc(Sc2ccccc2N2CCNCC2)c(C)c1 [hemihydrate of vortioxetine hydrobromide, vortioxetine hydrobromide]
[3]; according to WO2007/144005A1 / US9562024B2
  hygroscopicity (in words): hygroscopic
[4]
  stability: unstable

## Cc1ccc(Sc2ccccc2N2CCNCC2)c(C)c1 [Form α of vortioxetine hydrobromide, vortioxetine hydrobromide]
[5]; Examples 4b and 4d of WO2007/144005A1, listed as vortioxetine hydrobromide Form α, hydrobromide
  solubilities in water: 2 mg/mL
[4]
  stability: unstable and is transformed to the Form β of vortioxetine hydrobromide at room temperature

## Cc1ccc(Sc2ccccc2N2CCNCC2)c(C)c1 [Vortioxetine, 1-[2-(2,4-dimethyl-phenylsulfanyl)-phenyl]piperazine]
[5]; 25 °C
  solubility in water: 7.8 µg/mL (≈ 26.1 µM)

## Br.Br.Cc1ccc(Sc2ccccc2N2CCNCC2)c(C)c1.Cc1ccc(Sc2ccccc2N2CCNCC2)c(C)c1.Oc1cccc(O)c1 [cocrystal Form I, cocrystal of vortioxetine hydrobromide and resorcinol]
[1]; 7 days
  XRPD: stable
[1]; 14 days
  XRPD: stable
[1]; 21 days
  XRPD: stable
[1]; 28 days
  XRPD: stable
[1]; 28 days, listed as cocrystal of vortioxetine hydrobromide and resorcinol Form I
  XRPD: remained stable
[1]; 28 days, listed as cocrystal of vortioxetine·HBr and resorcinol Form I
  XRPD: remained stable

## Cc1ccc(Sc2ccccc2N2CCNCC2)c(C)c1 [ethyl acetate solvate of vortioxetine hydrobromide]
[4]
  stability: unstable

## Cc1ccc(Sc2ccccc2N2CCNCC2)c(C)c1 [vortioxetine hemihydrobromide]
[6]
  kinetic solubility: much lower
